Results as given in ChEMBL document CHEMBL1201862, “PubChem BioAssay data set” (2004).
Activity calls are given as the source filed them. Cut-off read from the data, not from the text of the source, for most assays here: actives have a measured EC50 and inactives only a lower limit.

Key:
[1] = cells; assay type: functional, cell-based
[2] = molecular target: T1, Heat shock factor protein 1 (Mus musculus, UniProt P38532); assay: inhibition of MG132-induced HSE-luciferase signal, confirmation, cell-based, NIH3T3, luminescence, dose retest (AID 2382); assay type: functional;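 note: NIH3T3 fibroblasts with HSF1-driven luciferase reporter stressed by proteasome inhibitor MG132; luminescence from HSF1-driven luciferase expression after 8 hours of MG132 stress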
T1 sequence (P38532 whole entry): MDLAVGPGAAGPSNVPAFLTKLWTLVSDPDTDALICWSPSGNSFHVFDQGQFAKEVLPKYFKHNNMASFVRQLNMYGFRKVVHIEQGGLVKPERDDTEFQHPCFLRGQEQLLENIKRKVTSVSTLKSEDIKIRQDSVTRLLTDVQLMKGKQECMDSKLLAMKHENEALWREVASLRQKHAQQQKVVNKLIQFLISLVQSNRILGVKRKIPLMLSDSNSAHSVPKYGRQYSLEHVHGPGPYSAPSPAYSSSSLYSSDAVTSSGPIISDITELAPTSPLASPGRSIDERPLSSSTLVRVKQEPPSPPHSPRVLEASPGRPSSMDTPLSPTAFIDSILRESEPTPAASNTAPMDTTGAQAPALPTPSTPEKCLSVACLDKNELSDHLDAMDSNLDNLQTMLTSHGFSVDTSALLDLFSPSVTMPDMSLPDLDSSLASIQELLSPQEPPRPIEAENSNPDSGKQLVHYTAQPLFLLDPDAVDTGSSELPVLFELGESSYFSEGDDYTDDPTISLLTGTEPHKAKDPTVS

[3] = cells; assay type: functional, cell-based; remark: listed apart in the source
[4] = molecular target: Genome polyprotein (dengue virus type 2, UniProt P29990); assay: Dengue-2 NS5 methyltransferase inhibitors, primary screen, biochemical, confirmation dose response (AID 588689); assay type: functional
[5] = inhibitors of firefly luciferase expression or activity, dose response, H4 neuroglioma cells, luminescence (AID 1990); assay type: functional, cell-based
[6] = Luminescence Cell-Based Dose Response HTS to Identify Inhibitors of 5'UTR Stem-Loop Driven Prion Protein mRNA Translation in H4 Neuroglioblastoma Cells. [Related pubchem assays: 1827 (Project Summary), 1813 (Primary HTS)]; assay type: functional
[7] = inhibitors of SNCA 5'UTR-driven reporter translation, confirmation, H4 neuroglioma cells, luminescence (AID 1988); assay type: functional, cell-based
[8] = tested on: INS1; assay: beta cell apoptosis inhibitors, cytokine rescue, dose response, luminescence, retest (AID 449756); assay type: functional, cell-based; conditions: Rattus norvegicus;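 note: cell death triggered by IL-1 beta plus TNF-alpha plus IFN-gamma mixture; protective hits raise ATP signal compared with cytokine alone wells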
[9] = molecular target: T2, Corticotropin-releasing factor receptor 2/Corticotropin-releasing factor-binding protein (Homo sapiens, UniProt P24387+Q13324); assay: activators of CRF receptor 2 with binding protein – uHTS hits, confirmation (AID 602473); assay type: functional; conditions: read-out: EC50_Mean
T2 sequence (Q13324 whole entry): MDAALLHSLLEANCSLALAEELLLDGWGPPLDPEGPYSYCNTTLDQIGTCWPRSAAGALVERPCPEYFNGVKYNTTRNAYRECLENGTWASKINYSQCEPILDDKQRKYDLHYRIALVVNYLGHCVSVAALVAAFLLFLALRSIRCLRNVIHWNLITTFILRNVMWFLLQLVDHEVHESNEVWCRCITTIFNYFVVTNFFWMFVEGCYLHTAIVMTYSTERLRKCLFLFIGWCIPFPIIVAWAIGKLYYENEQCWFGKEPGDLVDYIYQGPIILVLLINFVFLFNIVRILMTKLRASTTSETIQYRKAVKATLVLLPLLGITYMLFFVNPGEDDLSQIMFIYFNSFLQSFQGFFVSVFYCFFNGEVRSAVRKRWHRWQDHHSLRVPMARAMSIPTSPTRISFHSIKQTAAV
T2 sequence (P24387 whole entry): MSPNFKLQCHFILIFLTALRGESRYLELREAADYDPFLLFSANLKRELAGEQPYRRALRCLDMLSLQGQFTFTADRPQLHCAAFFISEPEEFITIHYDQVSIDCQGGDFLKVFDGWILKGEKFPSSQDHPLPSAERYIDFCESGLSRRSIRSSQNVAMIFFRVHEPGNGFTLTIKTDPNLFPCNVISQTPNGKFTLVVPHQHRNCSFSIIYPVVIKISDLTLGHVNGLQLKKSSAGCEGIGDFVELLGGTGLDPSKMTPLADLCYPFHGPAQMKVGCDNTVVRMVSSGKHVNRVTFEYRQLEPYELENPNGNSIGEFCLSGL

[10] = molecular target: T3, Protein skinhead-1 (Caenorhabditis elegans, UniProt P34707); assay type: functional
T3 sequence (P34707 whole entry): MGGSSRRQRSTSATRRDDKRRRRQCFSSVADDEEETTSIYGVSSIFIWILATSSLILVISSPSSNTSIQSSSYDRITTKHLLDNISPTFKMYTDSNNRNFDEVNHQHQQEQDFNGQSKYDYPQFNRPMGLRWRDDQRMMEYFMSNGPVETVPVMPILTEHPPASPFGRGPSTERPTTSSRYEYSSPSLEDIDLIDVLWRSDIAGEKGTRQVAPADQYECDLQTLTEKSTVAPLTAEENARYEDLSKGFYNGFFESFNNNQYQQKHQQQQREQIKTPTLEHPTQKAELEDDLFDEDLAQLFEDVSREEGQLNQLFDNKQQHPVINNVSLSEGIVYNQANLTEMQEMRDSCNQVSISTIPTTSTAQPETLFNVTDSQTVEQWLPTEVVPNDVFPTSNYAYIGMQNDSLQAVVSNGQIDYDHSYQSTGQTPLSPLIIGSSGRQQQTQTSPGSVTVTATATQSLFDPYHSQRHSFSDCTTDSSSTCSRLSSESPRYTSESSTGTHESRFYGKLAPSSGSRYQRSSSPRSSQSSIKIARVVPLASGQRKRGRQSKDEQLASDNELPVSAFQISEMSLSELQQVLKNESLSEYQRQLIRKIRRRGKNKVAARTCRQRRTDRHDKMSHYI

[11] = molecular target: T1, Heat shock factor protein 1; assay: HSF1 potentiators in luciferase reporter cells, confirmation, cell-based, NIH3T3, luminescence, dose retest (AID 435004); assay type: functional;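 note: stress induced by proteasome inhibitor MG132 added 30 min after compound; luciferase reporter driven by HSF1 response element in NIH3T3 cells; actives raise luminescence as potentiators of the MG132 stress response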
[12] = NIH-3T3 fibroblast cytotoxicity, dose response, cytotoxicity control, cell-based, fluorescence, Alamar Blue, secondary assay (AID 2327); assay type: functional;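 note: NIH-3T3 mouse fibroblasts cultured with fluconazole at 8 µg/mL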
[13] = molecular target: Cytochrome P450 2D6 (Homo sapiens, UniProt P10635);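 note: CYP2D6 member of a cytochrome P450 panel assay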
[14] = molecular target: T4, RNA-binding protein pos-1 (Caenorhabditis elegans, UniProt G5EF15); assay: inhibitors of POS-1/mex-3 RNA binding, dose response, biochemical, fluorescence polarization (AID 1964);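 note: purified POS-1 fused to maltose binding protein made in E. coli; potency of compounds blocking POS-1 binding to fluorescent RNA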
T4 sequence (G5EF15 whole entry): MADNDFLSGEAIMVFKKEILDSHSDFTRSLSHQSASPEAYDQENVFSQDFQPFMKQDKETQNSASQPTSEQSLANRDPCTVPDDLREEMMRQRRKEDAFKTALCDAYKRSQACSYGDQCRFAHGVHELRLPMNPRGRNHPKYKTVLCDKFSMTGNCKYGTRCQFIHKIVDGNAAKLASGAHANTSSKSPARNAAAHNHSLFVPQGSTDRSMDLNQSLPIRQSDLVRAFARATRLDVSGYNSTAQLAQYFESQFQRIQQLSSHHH

[15] = molecular target: T5, Zinc finger protein mex-5 (Caenorhabditis elegans, UniProt Q9XUB2); assay: MEX-5/TCR-2 RNA interaction inhibitors, dose response, biochemical, C. elegans, fluorescence polarization (AID 1960)
T5 sequence (Q9XUB2 whole entry): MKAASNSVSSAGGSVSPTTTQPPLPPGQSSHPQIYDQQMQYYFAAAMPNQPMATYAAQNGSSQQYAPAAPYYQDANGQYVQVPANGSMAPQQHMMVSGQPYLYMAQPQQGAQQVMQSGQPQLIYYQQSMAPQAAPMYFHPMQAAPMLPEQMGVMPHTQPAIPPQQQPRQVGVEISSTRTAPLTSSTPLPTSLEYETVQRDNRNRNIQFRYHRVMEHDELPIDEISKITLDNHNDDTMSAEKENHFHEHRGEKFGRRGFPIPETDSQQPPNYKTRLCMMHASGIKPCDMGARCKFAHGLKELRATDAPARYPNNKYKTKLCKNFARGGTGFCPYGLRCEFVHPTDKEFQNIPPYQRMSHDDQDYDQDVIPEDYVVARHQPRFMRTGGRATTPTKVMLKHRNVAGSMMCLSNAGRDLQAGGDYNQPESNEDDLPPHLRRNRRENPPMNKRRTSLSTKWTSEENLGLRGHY

[16] = Shn3 3'UTR reporter inhibitors, dose response, cell-based, Clone20 osteoblasts, firefly luciferase, cherry-picked (AID 624132); assay type: functional;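 note: firefly luciferase luminescence from reporter carrying the Shn3 3'UTR in osteoblasts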

Sequence of Genome polyprotein (P29990 2492-3391 limits assumed): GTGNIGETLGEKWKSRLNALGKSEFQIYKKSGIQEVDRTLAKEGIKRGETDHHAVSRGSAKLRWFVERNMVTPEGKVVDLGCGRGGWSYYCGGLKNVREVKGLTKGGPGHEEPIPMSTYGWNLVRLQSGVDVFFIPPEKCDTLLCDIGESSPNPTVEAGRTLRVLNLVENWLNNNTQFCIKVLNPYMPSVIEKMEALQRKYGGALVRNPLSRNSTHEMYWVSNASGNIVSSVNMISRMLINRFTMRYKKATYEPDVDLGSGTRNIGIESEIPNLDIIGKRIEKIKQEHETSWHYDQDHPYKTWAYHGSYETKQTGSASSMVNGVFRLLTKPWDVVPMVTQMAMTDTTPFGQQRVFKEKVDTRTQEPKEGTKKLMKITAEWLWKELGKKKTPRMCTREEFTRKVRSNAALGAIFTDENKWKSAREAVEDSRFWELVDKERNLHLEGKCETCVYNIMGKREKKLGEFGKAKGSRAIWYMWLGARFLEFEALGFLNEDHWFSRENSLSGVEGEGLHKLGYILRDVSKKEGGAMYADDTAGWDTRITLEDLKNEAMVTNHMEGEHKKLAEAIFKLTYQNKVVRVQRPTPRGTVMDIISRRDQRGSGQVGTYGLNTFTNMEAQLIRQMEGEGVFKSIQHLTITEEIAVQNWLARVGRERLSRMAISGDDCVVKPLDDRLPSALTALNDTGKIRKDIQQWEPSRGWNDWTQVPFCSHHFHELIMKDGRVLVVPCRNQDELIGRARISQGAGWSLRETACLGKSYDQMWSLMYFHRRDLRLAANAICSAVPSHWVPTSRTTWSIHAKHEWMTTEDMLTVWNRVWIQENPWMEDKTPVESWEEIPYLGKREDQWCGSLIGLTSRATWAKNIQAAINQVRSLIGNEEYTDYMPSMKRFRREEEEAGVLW
Sequence of Cytochrome P450 2D6 (P10635 whole entry, the tested form may be a part): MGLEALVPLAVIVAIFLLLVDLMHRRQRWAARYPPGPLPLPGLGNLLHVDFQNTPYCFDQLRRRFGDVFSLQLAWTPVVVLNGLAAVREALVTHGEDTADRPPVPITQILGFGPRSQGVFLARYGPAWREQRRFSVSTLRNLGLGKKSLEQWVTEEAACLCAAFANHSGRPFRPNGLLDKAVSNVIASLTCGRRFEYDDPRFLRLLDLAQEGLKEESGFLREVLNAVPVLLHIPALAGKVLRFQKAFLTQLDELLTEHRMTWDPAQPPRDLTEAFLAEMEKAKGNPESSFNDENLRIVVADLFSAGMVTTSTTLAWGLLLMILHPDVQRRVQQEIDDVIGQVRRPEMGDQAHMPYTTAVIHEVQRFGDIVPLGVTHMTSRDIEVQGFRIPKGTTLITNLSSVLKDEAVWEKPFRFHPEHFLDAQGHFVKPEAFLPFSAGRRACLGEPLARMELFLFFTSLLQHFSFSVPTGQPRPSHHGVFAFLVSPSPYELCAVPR

Structure (SMILES): CCn1nc(C(=O)OCC(=O)NC(C)C)c2ccccc2c1=O
- EC50 [1]: > 350 µM (not active)
- EC50 [2]: > 195 µM (not active)
- EC50 [3]: > 350 µM (not active)

Structure (SMILES): O=C(O)c1cccc(Nc2nc3ccccc3nc2NS(=O)(=O)c2cccs2)c1
- IC50 [4]: 66.3 µM (active)

Structure (SMILES): O=C(N/N=C/c1cc([N+](=O)[O-])ccc1O)c1cccc2cc[nH]c12
- EC50 [5]: > 120 µM (not active)
- EC50 [1]: 311 µM (active)
- EC50 [6]: 10.3 µM (active)
- EC50 [7]: 14.8 µM (active)
- EC50 [3]: 24.6 µM (active)
- AC50 [8]: 2.02 µM (active)

Structure (SMILES): O=C1CSC(=S)N1N=Cc1c(F)cccc1Cl
- EC50 [9]: > 53 µM (inactive)

Structure (SMILES): Clc1ccc(SCc2cc(-c3ccccc3)on2)cc1
- IC50 [10]: > 100 µM (inactive)

Structure (SMILES): CSCCC(NC(=O)c1ccccc1)C(=O)N/N=C(\C)c1ccccc1 (stereo not drawn)
- EC50 [9]: 7.06 µM (active)

Structure (SMILES): CCOC(=O)c1c(-c2ccc(C)o2)csc1NC(=O)CSc1nncs1
- EC50 [11]: > 260 µM (inactive)

Structure (SMILES): Cc1cc(-c2nnc(CCC(=O)N(C)Cc3cccc4ccccc34)o2)no1
- EC50 [11]: > 260 µM (inactive)

Structure (SMILES): O=C1NC[C@@H](c2ccccc2)OC(=O)[C@H](Cc2ccc(F)cc2)CC/C=C/C[C@H]1CC(=O)N(CCO)Cc1ccccc1
- EC50 [9]: > 53 µM (inactive)

Structure (SMILES): COCCNC(=O)C(c1ccc(C)o1)N(Cc1ccc(OC)cc1)C(=O)Cn1nnc2ccccc21 (stereo not drawn)
- IC50 [10]: > 100 µM (inactive)

Structure (SMILES): COc1ccc(-c2csc(NC(=O)c3ccccc3Br)c2C(=O)O)cc1
- IC50 [4]: 74.4 µM (active)

Structure (SMILES): CC1(C)C(=Cc2ccccc2)C(=O)c2ccccc21
- IC50 [10]: 18 µM (active)

Structure (SMILES): CCCS(=O)(=O)NC(=O)C1(C)CCN(C(=O)c2cccc(C)c2C)C1 (stereo not drawn)
- IC50 [10]: > 100 µM (inactive)

Structure (SMILES): O=C(O)/C(=C\c1ccc(Cl)c([N+](=O)[O-])c1)c1ccc(S(=O)(=O)N2CCCCC2)s1
- IC50 [4]: 81.4 µM (active)

Structure (SMILES): C=CCn1c(COc2ccc(F)cc2)nnc1SCC(=O)Nc1cccc(S(N)(=O)=O)c1
- EC50 [12]: > 160 µM (inactive)

Structure (SMILES): COc1cc(NS(=O)(=O)c2ccc(Br)cc2)c(OC)cc1NC(=O)c1ccco1
- IC50 [10]: > 100 µM (inactive)

Structure (SMILES): COc1cc(-c2nnc3sc(Cc4ccc(Cl)cc4)nn23)cc(OC)c1OC
- EC50 [11]: > 260 µM (inactive)

Structure (SMILES): O=C(COC(=O)c1ccccc1C(=O)c1ccccc1)Nc1cccc([N+](=O)[O-])c1
- EC50 [11]: > 260 µM (inactive)

Structure (SMILES): C=CCC1=C/C(=C\c2c(N)n3nc(CC(=O)N4CCCC4)sc3nc2=O)C=C(OC)C1=O
- EC50 [9]: 10.6 µM (active)

Structure (SMILES): CCCN(CC(=O)Nc1ccc(Cl)cc1Cl)C(=O)/C=C/c1ccco1
- EC50 [11]: 17.6 µM (active)

Structure (SMILES): C=CCn1c(N2CCCCCC2)nc2c1c(=O)[nH]c(=O)n2C
- EC50 [1]: > 350 µM (not active)
- EC50 [3]: > 350 µM (not active)

Structure (SMILES): COc1ccccc1CCC(=O)OCC(=O)Nc1c(Br)cc(C)cc1Br
- EC50 [11]: > 260 µM (inactive)

Structure (SMILES): Cc1ccc(/C=C(\C#N)c2nn(-c3ccccc3)c(N)c2C#N)cc1
- EC50 [1]: > 350 µM (not active)
- EC50 [3]: > 350 µM (not active)

Structure (SMILES): COc1ccccc1CN1CC(C(=O)NCCc2ncccc2C)CCC1=O (stereo not drawn)
- EC50 [11]: > 260 µM (inactive)

Structure (SMILES): O=S(=O)([O-])CCC[n+]1c(SCCCS(=O)(=O)O)sc2ccc(Cl)cc21
- IC50 [4]: > 100 µM (active)

Structure (SMILES): CN1C(=O)C2(c3ccccc31)N(C)CC(c1ccccn1)C21SC(=S)N(Cc2ccco2)C1=O (stereo not drawn)
- EC50 [11]: > 260 µM (inactive)

Structure (SMILES): COc1ccc(C2(c3ccc(OC)cc3)NC(=O)N(CC(=O)N(C)c3ccccc3)C2=O)cc1
- EC50 [11]: > 260 µM (inactive)

Structure (SMILES): COc1cc(NS(=O)(=O)c2ccc(C)cc2)c2c(c1N)C(=O)c1ccccc1C2=O
- IC50 [10]: > 100 µM (inactive)

Structure (SMILES): O=C(COc1ccc(Cl)cc1Cl)N/N=C/CCc1ccccc1
- EC50 [1]: > 350 µM (not active)
- EC50 [3]: > 350 µM (not active)
- AC50 [13]: 3.16 µM (inconclusive)

Structure (SMILES): Cc1cc(C)c2c(N)c(C(=O)Nc3ccccc3F)sc2n1
- EC50 [1]: > 350 µM (not active)
- EC50 [3]: 131 µM (active)

Structure (SMILES): Oc1ccc(N=Nc2ccccc2-c2nn[nH]n2)c(O)c1
- EC50 [14]: > 300 µM (not active)
- EC50 [15]: > 300 µM (not active)
- IC50 [4]: > 100 µM (active)

Structure (SMILES): Brc1ccc(CSc2nnc(-c3ccco3)o2)cc1
- IC50 [10]: 8.76 µM (active)

Structure (SMILES): Cc1c(Cl)c(C(=O)NC2CCCC2)nn1C
- EC50 [11]: > 260 µM (inactive)

Structure (SMILES): CC1(Cc2ccc(OC(F)(F)F)cc2)C(=O)Nc2c(Cl)ccc(Cl)c21 (stereo not drawn)
- AC50 [16]: 25.7 µM (active)
